Consider nine molecules from ChEMBL document CHEMBL5370585, “Exploration and Biological Evaluation of 1,3-Diamino-7H-pyrrol[3,2-f]quinazoline Derivatives as Dihydrofolate Reductase Inhibitors” (J Med Chem, 2023).

As usually defined, the MIC is the lowest concentration that inhibits growth of the organism. A word on the IC50: it is the concentration at which inhibition is half-maximal. Lower therefore signals greater potency in that assay. The inhibition is the drop in the measured response relative to a control, in per cent.

Structures are written as SMILES. ≈ marks a conversion by molar mass, not a printed value.

Assay [1] deals with Staphylococcus epidermidis. Put plainly: Antibacterial activity against Staphylococcus epidermidis ATCC 12228 incubated for 16 to 18 hrs by CLSI based broth dilution method. The format is functional. The following applies: time 16-18 hrs. Background: Dilution methods test growth across graded concentrations, often in twofold steps.
Assay [2] relates to Staphylococcus aureus. The assay can be described thus: Antibacterial activity against Staphylococcus aureus ATCC 29213 incubated for 16 to 18 hrs by CLSI based broth dilution method. The following applies: time 16-18 hrs. In kind it is functional.
Assay [3] has as its system HCT-116. The assay can be described thus: Cytotoxicity against human HCT-116 cells measured after 72 hrs by MTT assay. The format is functional, cell-based. The following applies: HCT-116, 72 h. On the technique in general: Tetrazolium assays rely on reduction of a dye to a coloured formazan, in cell work by metabolically active cells.
Assay [4] has as its system Staphylococcus aureus. Put plainly: Antibacterial activity against methicillin-resistant Staphylococcus aureus ATCC 43300 incubated for 16 to 18 hrs by CLSI based broth dilution method. The following applies: time 16-18 hrs. The format is functional.
The subject of assay [5] is HepG2. Put plainly: Cytotoxicity against human HepG2 cells measured after 72 hrs by MTT assay. In kind it is functional, cell-based. The following applies: HepG2, 72 h.
Assay [6] relates to MCF7. The assay can be described thus: Cytotoxicity against human MCF7 cells measured after 72 hrs by MTT assay. The format is functional, cell-based. The following applies: MCF7, 72 h.
In assay [7] the test system is HGC-27. The assay can be described thus: Cytotoxicity against human HGC-27 cells measured after 72 hrs by MTT assay. The format is functional, cell-based. The following applies: HGC-27, 72 h.
Assay [8] has as its system Escherichia coli. The assay can be described thus: Antibacterial activity against Escherichia coli ATCC 25922 incubated for 16 to 18 hrs by CLSI based broth dilution method. The format is functional. The following applies: time 16-18 hrs.
For assay [9], the target named is T1, Dihydrofolate reductase (Homo sapiens) (UniProt P00374).
T1 sequence (whole entry): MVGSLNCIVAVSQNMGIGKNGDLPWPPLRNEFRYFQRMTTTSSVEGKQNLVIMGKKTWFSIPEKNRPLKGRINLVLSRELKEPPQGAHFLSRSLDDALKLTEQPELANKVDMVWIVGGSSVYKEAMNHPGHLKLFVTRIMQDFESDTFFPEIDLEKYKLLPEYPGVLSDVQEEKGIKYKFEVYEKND
Put plainly: Inhibition of human DHFR at 1 uM incubated for 10 mins in presence of NADPH by colorimetry based analysis relative to control.

In assay [10] the test system is Enterococcus faecalis. The assay can be described thus: Antibacterial activity against Enterococcus faecalis ATCC 29212 incubated for 16 to 18 hrs by CLSI based broth dilution method. The format is functional. The following applies: time 16-18 hrs.

On to `Nc1nc(N)c2c(ccc3c2ccn3Cc2ccc3cc(C(=O)O)ccc3n2)n1`, for which the MIC in assay [1] was 0.25 µg/mL (≈ 0.65 µM); in assay [2], 32 µg/mL (≈ 83.2 µM); in assay [4], 32 µg/mL (≈ 83.2 µM); in assay [8] it was over 128 µg/mL; in [10], over 8 µg/mL. For the same molecule, the half-maximal inhibitory concentration (IC50) turned out to be 9570 nM in assay [3], 4650 nM in assay [5], 9740 nM in [6] and 4210 nM in assay [7]. Further, the inhibition in [9] worked out at 77.4%.
Regarding `COC(=O)c1ccc2nc(Cn3ccc4c5c(N)nc(N)nc5ccc43)ccc2c1`, the MIC in assay [1] came to 0.25 µg/mL (≈ 0.627 µM); in assay [2], 0.5 µg/mL (≈ 1.25 µM); in [4], 0.25 µg/mL (≈ 0.627 µM); in [8], 2 µg/mL (≈ 5.02 µM); in assay [10], 0.25 µg/mL (≈ 0.627 µM). Further, the half-inhibitory concentration (IC50) in assay [3] is 210 nM; in assay [5], 430 nM; in [6], 850 nM; in [7], under 100 nM. In assay [9], the inhibition was found to be 64.5%.
Regarding `Nc1nc(N)c2c(ccc3c2ccn3Cc2ccc3ccccc3c2)n1`, the minimal inhibitory concentration (MIC) is 0.5 µg/mL (≈ 1.47 µM) in assay [1]; 0.5 µg/mL (≈ 1.47 µM) in assay [2]; 0.25 µg/mL (≈ 0.737 µM) in [4]; 0.5 µg/mL (≈ 1.47 µM) in assay [8]; 0.5 µg/mL (≈ 1.47 µM) in assay [10]. The IC50 in [3] was 50 nM; in [5], 110 nM; in assay [6], over 1000 nM; in assay [7], 29 nM. The inhibition in assay [9] amounted to 70.9%.
Turning to `Nc1nc(N)c2c(ccc3c2ccn3Cc2ccc(Br)c3ccccc23)n1`, the minimum inhibitory concentration (MIC) in assay [1] is at most 0.004 µg/mL; in assay [2], 0.25 µg/mL (≈ 0.598 µM); in assay [4] it was 0.125 µg/mL (≈ 0.299 µM); in assay [8], 1 µg/mL (≈ 2.39 µM); in [10], 0.125 µg/mL (≈ 0.299 µM). Besides, the IC50 in assay [3] was under 100 nM; in [5], under 100 nM; in assay [6], 190 nM; in assay [7], under 100 nM. Further, the inhibition in [9] was determined as 74.1%.
For `COc1cc(Cc2cnc(N)nc2N)c2c(c1OC)OC(C1CC1)C=C2` (stereo not given), the MIC was at most 0.004 µg/mL in assay [1]; 0.06 µg/mL (≈ 0.169 µM) in assay [2]; 0.06 µg/mL (≈ 0.169 µM) in assay [4]; 1 µg/mL (≈ 2.82 µM) in [8]; 0.06 µg/mL (≈ 0.169 µM) in assay [10].
For `Nc1nc(N)c2c(ccc3c2ccn3Cc2ccc3cc(C(=O)O)ccc3c2)n1`, the minimum inhibitory concentration (MIC) in assay [1] was at most 0.004 µg/mL; in assay [2] it was 0.004 µg/mL (≈ 0.0104 µM); in assay [4], 0.004 µg/mL (≈ 0.0104 µM); in [8], over 128 µg/mL; in assay [10] it was 50 µg/mL (≈ 130 µM). Further, the IC50 amounted to 100 nM in assay [3], 140 nM in [5], 550 nM in [6] and 95 nM in assay [7]. The inhibition in assay [9] was found to be 98.8%.
In the case of `CCOC(=O)c1ccc(Cn2ccc3c4c(N)nc(N)nc4ccc32)c2ccccc12`, the minimal inhibitory concentration (MIC) was at most 0.06 µg/mL in [1]; 0.5 µg/mL (≈ 1.22 µM) in [2]; 0.25 µg/mL (≈ 0.608 µM) in assay [4]; 64 µg/mL (≈ 156 µM) in assay [8]; 0.5 µg/mL (≈ 1.22 µM) in assay [10]. In addition, the half-inhibitory concentration (IC50) in [3] was 870 nM; in [5] it was 530 nM; in assay [6] it was 8250 nM; in [7], under 100 nM. The inhibition in assay [9] is 70.9%.
As for `COC(=O)c1ccc(Cn2ccc3c4c(N)nc(N)nc4ccc32)c2ccccc12`, the MIC in assay [1] is at most 0.004 µg/mL; in assay [2], 0.004 µg/mL (≈ 0.0101 µM); in assay [4], 0.004 µg/mL (≈ 0.0101 µM); in [8], 2 µg/mL (≈ 5.03 µM); in assay [10] it was 0.016 µg/mL (≈ 0.0403 µM). The 50% inhibitory concentration (IC50) was 180 nM in assay [3], 190 nM in assay [5], 1320 nM in [6] and under 100 nM in [7]. Also, the inhibition in assay [9] worked out at 83.9%.
As for `Nc1nc(N)c2c(ccc3c2ccn3Cc2ccc(B(O)O)c3ccccc23)n1`, the MIC in assay [1] was at most 0.004 µg/mL; in [2], 0.25 µg/mL (≈ 0.652 µM); in [4], 0.125 µg/mL (≈ 0.326 µM); in assay [8] it was 1 µg/mL (≈ 2.61 µM); in [10], 0.125 µg/mL (≈ 0.326 µM). Further, the IC50 in assay [3] was under 100 nM; in assay [5], under 100 nM; in [6] it was 110 nM; in assay [7], under 100 nM. Also, in [9], the inhibition was 77.4%.
